According to ChEMBL document CHEMBL1148002, “Synthesis and evaluation of 2'-substituted cyclobutyl nucleosides and nucleotides as potential anti-HIV agents” (Bioorg Med Chem Lett, 2007):

How the values were obtained:
[1] = Inhibition of recombinant wild type HIV reverse transcriptase; design: species or system Human immunodeficiency virus
[2] = Inhibition of wild type HIV reverse transcriptase in cell free assay; settings: Human immunodeficiency virus
[3] = molecular target: Human immunodeficiency virus type 1 reverse transcriptase (Human immunodeficiency virus 1, UniProt Q72547, M184I); assay: Inhibition of HIV reverse transcriptase M184I mutant in cell free assay
[4] = Inhibition of HIV reverse transcriptase M184V mutant in cell free assay; settings: Human immunodeficiency virus

Row | SMILES | IC50 [1] [µM] | IC50 [2] [µM] | IC50 [3] [µM] | IC50 [4] [µM]
1 | Nc1nc(=O)n([C@H]2C[C@@H](COP(=O)(O)OP(=O)(O)OP(=O)(O)O)C2)cc1F | 4.7 | 6.9 | 6.1 | 
2 | Nc1ccn([C@@H]2CS[C@H](COP(=O)(O)OP(=O)(O)OP(=O)(O)O)O2)c(=O)n1 [LAMIVUDINE TRIPHOSPHATE] | 3 | 6.5 | > 10 | > 10
